Consider 35 compounds from patent US20100144733A1, “Compounds, compositions and methods comprising heteroaromatic derivatives” (Institute for OneWorld Health, priority 2008, published 2010).

One assay deals with T1, CFTR (Homo sapiens, UniProt P13569).
T1 construct: endogenous in cells; host or cells: T84 human colonic cells (ECACC)
T1 sequence (P13569 whole entry): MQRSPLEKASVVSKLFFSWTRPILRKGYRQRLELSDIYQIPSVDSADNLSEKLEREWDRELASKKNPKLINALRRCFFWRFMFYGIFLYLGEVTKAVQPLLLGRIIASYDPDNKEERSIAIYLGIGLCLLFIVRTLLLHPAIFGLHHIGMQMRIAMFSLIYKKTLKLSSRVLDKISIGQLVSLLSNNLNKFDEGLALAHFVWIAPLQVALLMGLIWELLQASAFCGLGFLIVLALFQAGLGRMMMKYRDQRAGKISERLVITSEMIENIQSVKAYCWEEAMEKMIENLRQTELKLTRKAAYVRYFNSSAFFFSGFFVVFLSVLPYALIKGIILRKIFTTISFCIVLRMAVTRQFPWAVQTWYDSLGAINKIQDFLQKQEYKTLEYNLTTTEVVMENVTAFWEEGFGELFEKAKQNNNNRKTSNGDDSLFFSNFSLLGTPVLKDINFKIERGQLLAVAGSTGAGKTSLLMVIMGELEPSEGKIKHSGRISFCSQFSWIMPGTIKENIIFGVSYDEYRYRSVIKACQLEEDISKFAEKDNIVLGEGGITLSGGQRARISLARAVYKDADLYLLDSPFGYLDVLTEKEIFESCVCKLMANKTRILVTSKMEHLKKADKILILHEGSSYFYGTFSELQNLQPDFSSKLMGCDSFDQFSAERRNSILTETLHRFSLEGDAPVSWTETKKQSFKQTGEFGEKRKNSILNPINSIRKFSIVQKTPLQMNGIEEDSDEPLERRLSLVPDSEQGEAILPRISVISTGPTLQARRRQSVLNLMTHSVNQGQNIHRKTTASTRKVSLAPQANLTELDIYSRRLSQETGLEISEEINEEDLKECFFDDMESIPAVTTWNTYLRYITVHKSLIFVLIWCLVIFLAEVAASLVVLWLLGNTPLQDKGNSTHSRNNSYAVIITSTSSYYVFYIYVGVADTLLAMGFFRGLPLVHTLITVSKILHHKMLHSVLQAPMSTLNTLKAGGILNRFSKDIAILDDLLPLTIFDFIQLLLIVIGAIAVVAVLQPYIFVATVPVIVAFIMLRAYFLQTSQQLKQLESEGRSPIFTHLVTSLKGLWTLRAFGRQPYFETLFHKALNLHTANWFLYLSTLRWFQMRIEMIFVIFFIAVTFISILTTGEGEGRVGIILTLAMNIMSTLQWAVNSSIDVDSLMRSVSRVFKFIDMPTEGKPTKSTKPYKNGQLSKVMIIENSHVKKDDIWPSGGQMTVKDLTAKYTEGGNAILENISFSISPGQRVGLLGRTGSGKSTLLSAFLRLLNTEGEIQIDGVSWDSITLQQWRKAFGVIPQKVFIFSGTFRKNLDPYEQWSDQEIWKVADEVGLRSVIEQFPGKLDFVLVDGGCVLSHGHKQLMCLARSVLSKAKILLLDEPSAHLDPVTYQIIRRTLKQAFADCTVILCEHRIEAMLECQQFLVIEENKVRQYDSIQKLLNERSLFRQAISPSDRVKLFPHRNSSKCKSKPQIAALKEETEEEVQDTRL
Briefly: T84 assay (FLIPR membrane potential dye, forskolin/IBMX-stimulated CFTR channel activity). The class given is cell-based. The note with it: imidazole and triazole-containing compounds (Tables 13, 14, 14′), read-out: IC50 (μM) (T84 assay). In a few lines:
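Fluorescence from a membrane potential dye in T84 monolayers (HBSS with 10 mM Hepes) is followed each second for 150 s. Cells are exposed to test compound during the 45 min dye loading, then challenged with forskolin (10 μM) and IBMX (100 μM) to open CFTR. Inhibitors suppress the depolarization-driven fluorescence increase.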
By IC50 is commonly meant the midpoint of a concentration-inhibition curve. For the compound `O=C(NCc1ccc(F)c(C(F)(F)F)c1)c1ncn(-c2cc(Cl)c(O)c(Cl)c2)n1` [29i, 1-(3,5-dichloro-4-hydroxyphenyl)-N-(4-fluoro-3-(trifluoromethyl)benzyl)-1H-1,2,4-triazole-3-carboxamide], the IC50 is 7.52 µM.

With `O=C(NCc1ccc(F)c(F)c1)c1ncn(-c2cc(Cl)c(O)c(Cl)c2)n1` [42i, 1-(3,5-dichloro-4-hydroxyphenyl)-N-(3,4-difluorobenzyl)-1H-1,2,4-triazole-3-carboxamide], the IC50 was 15.9 µM.

For the compound `CN(C(=O)c1ncn(-c2cc(Cl)c(O)c(Cl)c2)n1)c1ccc(OC(F)(F)F)cc1` [21i], the IC50 was 15.7 µM.

The same assay, now with this note: isoxazole-containing compounds (Table 10, 10′, 11, 11′), read-out: IC50.
On to `COc1ccccc1N1CCN(C(=O)c2cc(-c3cc(Br)c(O)c(Br)c3)on2)CC1` [11g, (5-(3,5-dibromo-4-hydroxyphenyl)isoxazol-3-yl)(4(2-methoxyphenyl)piperazin-1-yl)methanone], for which the IC50 came out at 14.2 µM.

For `O=C(c1cc(-c2cc(Br)c(O)c(Br)c2)on1)N1CCC(Cc2ccccc2)CC1` [9g, (4-Benzylpiperidin-1-yl)(5-(3,5-dibromo-4-hydroxyphenyl)isoxazol-3-yl)methanone], the IC50 was found to be 8.96 µM.

With `CN(Cc1ccc(Cl)cc1)C(=O)c1cc(-c2cc(Br)c(O)c(Br)c2)on1` [5g, N-(4-chlorobenzyl)-5-(3,5-dibromo-4-hydroxyphenyl)-N-methylisoxazole-3-carboxamide], the IC50 was 5.31 µM.

The same assay, now with this note: oxadiazole-containing compounds (a series), average of at least 2 runs unless annotated n = 1, read-out: IC50.
For `O=C(NCc1ccc(-c2ccccc2)cc1)c1nc(-c2cc(Cl)c(O)c(Cl)c2)no1` [131a, N-(biphenyl-4-ylmethyl)-3-(3,5-dichloro-4-hydroxyphenyl)-1,2,4-oxadiazole-5-carboxamide], the IC50 is 6.83 µM.

With `CN(Cc1ccc(Oc2ccccc2)cc1)C(=O)c1nc(-c2cc(Cl)c(O)c(Cl)c2)no1` [142a, 3-(3,5-dichloro-4-hydroxyphenyl)-N-methyl-N-(4-phenoxybenzyl)-1,2,4-oxadiazole-5-carboxamide], the IC50 came out at 10.2 µM.

Regarding `CN(C)c1ccc(CNC(=O)c2nc(-c3cc(Cl)c(O)c(Cl)c3)no2)cc1` [133a, 3-(3,5-dichloro-4-hydroxyphenyl)-N-(4-(dimethylamino)benzyl)-1,2,4-oxadiazole-5-carboxamide], the half-inhibitory concentration (IC50) was 17.9 µM.

`C=CCN(Cc1cccc(OC(F)(F)F)c1)C(=O)c1nc(-c2cc(Cl)c(O)c(Cl)c2)no1` [169a, N-allyl-3-(3,5-dichloro-4-hydroxyphenyl)-N-(3-(trifluoromethoxy)benzyl)-1,2,4-oxadiazole-5-carboxamide]: the IC50 stood at 2.95 µM.

Regarding `O=C(NCc1ccc(Oc2cc(F)cc(Br)c2)cc1)c1nc(-c2cc(Cl)c(O)c(Cl)c2)no1` [201a, N-(4-(3-bromo-5-fluorophenoxy)benzyl)-3-(3,5-dichloro-4-hydroxyphenyl)-1,2,4-oxadiazole-5-carboxamide], the IC50 came out at 17.9 µM.

As to `CN(Cc1cccc(C(F)(F)F)c1)C(=O)c1nc(-c2cc(Br)c(O)c(Br)c2)no1` [11a, 3-(3,5-dibromo-4-hydroxyphenyl)-N-methyl-N-(3-(trifluoromethyl)benzyl)-1,2,4-oxadiazole-5-carboxamide], the IC50 turned out to be 7.74 µM.

Take `O=C(c1nc(-c2cc(Cl)c(O)c(Cl)c2)no1)N(Cc1cccnc1)Cc1cccc(C(F)(F)F)c1` [89a, 3-(3,5-dichloro-4-hydroxyphenyl)-N-(pyridin-3-ylmethyl)-N-(3-(trifluoromethyl)benzyl)-1,2,4-oxadiazole-5-carboxamide]: the half-inhibitory concentration (IC50) amounted to 2.52 µM.

Regarding `CN(Cc1cccc(C(F)(F)F)c1)C(=O)c1nc(-c2cc(Cl)c(O)c(Cl)c2)no1` [139a, 3-(3,5-dichloro-4-hydroxyphenyl)-N-methyl-N-(3-(trifluoromethyl)benzyl)-1,2,4-oxadiazole-5-carboxamide], the IC50 was determined as 5.1 µM.

For `O=C(c1nc(-c2cc(Br)c(O)c(Br)c2)no1)N(CCO)Cc1ccccc1` [122a, N-benzyl-3-(3,5-dibromo-4-hydroxyphenyl)-N-(2-hydroxyethyl)-1,2,4-oxadiazole-5-carboxamide], the IC50 worked out at 19.8 µM.

With `O=C(c1nc(-c2cc(Br)c(O)c(Br)c2)no1)N1CCN(c2cccc(F)c2)CC1` [32a, (3-(3,5-dibromo-4-hydroxyphenyl)-1,2,4-oxadiazol-5-yl)(4-(3-fluorophenyl)piperazin-1-yl)methanone], the IC50 was found to be 17.2 µM.

Consider `C=CCN(Cc1cccc(C(F)(F)F)c1)C(=O)c1nc(-c2cc(Br)c(O)c(Br)c2)no1` [59a, N-allyl-3-(3,5-dibromo-4-hydroxyphenyl)-N-(3-(trifluoromethyl)benzyl)-1,2,4-oxadiazole-5-carboxamide], for which the IC50 worked out at 3.35 µM.

`O=C(NCc1ccc(Oc2cccc(OC(F)(F)F)c2)cc1)c1nc(-c2cc(Cl)c(O)c(Cl)c2)no1` [190a, 3-(3,5-dichloro-4-hydroxyphenyl)-N-(4-(3-(trifluoromethoxy)phenoxy)benzyl)-1,2,4-oxadiazole-5-carboxamide]: the concentration for half-maximal inhibition (IC50) worked out at 11 µM.

For `CCCN(Cc1cccc(C(F)(F)F)c1)C(=O)c1nc(-c2cc(Cl)c(O)c(Cl)c2)no1` [108a, 3-(3,5-dichloro-4-hydroxyphenyl)-N-propyl-N-(3-(trifluoromethyl)benzyl)-1,2,4-oxadiazole-5-carboxamide], the IC50 amounted to 2.79 µM.

As to `Cc1ccc(Oc2ccc(CNC(=O)c3nc(-c4cc(Cl)c(O)c(Cl)c4)no3)cc2)cc1Cl` [193a, N-(4-(3-chloro-4-methylphenoxy)benzyl)-3-(3,5-dichloro-4-hydroxyphenyl)-1,2,4-oxadiazole-5-carboxamide], the IC50 amounted to 13.6 µM.

In the case of `Cc1ccc(CNC(=O)c2noc(-c3cc(Cl)c(O)c(Cl)c3)n2)cc1` [81a, 5-(3,5-dichloro-4-hydroxyphenyl)-N-(4-methylbenzyl)-1,2,4-oxadiazole-3-carboxamide], the IC50 is 14.8 µM.

Regarding `O=C(NCc1cccc(C(F)(F)F)c1)c1nc(-c2cc(Cl)c(O)c(Cl)c2)no1` [134a, 3-(3,5-dichloro-4-hydroxyphenyl)-N-(3-(trifluoromethyl)benzyl)-1,2,4-oxadiazole-5-carboxamide], the 50% inhibitory concentration (IC50) is 8.65 µM.

For the compound `CC(C)(C)c1ccc(Oc2ccc(CNC(=O)c3nc(-c4cc(Cl)c(O)c(Cl)c4)no3)cc2)cc1` [192a, N-(4-(4-tert-butylphenoxy)benzyl)-3-(3,5-dichloro-4-hydroxyphenyl)-1,2,4-oxadiazole-5-carboxamide], the IC50 was found to be 17.6 µM.

Regarding `CCOCCN(Cc1cccc(C(F)(F)F)c1)C(=O)c1nc(-c2cc(Cl)c(O)c(Cl)c2)no1` [110a, 3-(3,5-dichloro-4-hydroxyphenyl)-N-(2-ethoxyethyl)-N-(3-(trifluoromethyl)benzyl)-1,2,4-oxadiazole-5-carboxamide], the IC50 was 3.76 µM.

As for `O=C(NCc1ccc(F)cc1F)c1nc(-c2cc(Cl)c(O)c(Cl)c2)no1` [132a, 3-(3,5-dichloro-4-hydroxyphenyl)-N-(2,4-difluorobenzyl)-1,2,4-oxadiazole-5-carboxamide], the IC50 was 16.1 µM.

As for `CN(Cc1ccc(-c2cncnc2)cc1)C(=O)c1nc(-c2cc(Cl)c(O)c(Cl)c2)no1` [188a, 3-(3,5-dichloro-4-hydroxyphenyl)-N-methyl-N-(4-(pyrimidin-5-yl)benzyl)-1,2,4-oxadiazole-5-carboxamide], the IC50 is 5.81 µM.

For the compound `COc1ccccc1N1CCN(C(=O)c2nc(-c3cc(Br)c(O)c(Br)c3)no2)CC1` [26a, (3-(3,5-dibromo-4-hydroxyphenyl)-1,2,4-oxadiazol-5-yl)(4-(2-methoxyphenyl)piperazin-1-yl)methanone], the IC50 is 14.5 µM.

Turning to `CN(C(=O)c1nc(-c2cc(Br)c(O)c(Br)c2)no1)c1ccc(OC(F)(F)F)cc1` [3a, 3-(3,5-dibromo-4-hydroxyphenyl)-N-methyl-N-(4(trifluoromethoxy)phenyl)-1,2,4-oxadiazole-5-carboxamide], the 50% inhibitory concentration (IC50) was determined as 2.62 µM.

For the compound `CN(Cc1cccc(C(F)(F)F)c1)C(=O)c1noc(-c2cc(Cl)c(OCC(=O)O)c(Cl)c2)n1` [106a, 2-(2,6-dichloro-4-(3-(methyl(3-(trifluoromethyl)benzyl)carbamoyl)-1,2,4-oxadiazol-5-yl)phenoxy)acetic acid], the IC50 came out at 24.6 µM.

For `CC(C)(C)CCNC(=O)c1nc(-c2cc(Br)c(O)c(Br)c2)no1` [105a, 3-(3,5-dibromo-4-hydroxyphenyl)-N-(3,3-dimethylbutyl)-1,2,4-oxadiazole-5-carboxamide], the IC50 came out at 23.1 µM.

Turning to `O=C(NCc1cccc(N2CCCCC2)c1)c1noc(-c2cc(Cl)c(O)c(Cl)c2)n1` [157a, 5-(3,5-dichloro-4-hydroxyphenyl)-N-(3-(piperidin-1-yl)benzyl)-1,2,4-oxadiazole-3-carboxamide], the IC50 is 3.33 µM.

As for `O=C(c1nc(-c2cc(Br)c(O)c(Br)c2)no1)N(Cc1cccc(C(F)(F)F)c1)Cc1cccc(C(F)(F)F)c1` [21a, 3-(3,5-dibromo-4-hydroxyphenyl)-N,N-bis(3-(trifluoromethyl)benzyl)-1,2,4-oxadiazole-5-carboxamide], the IC50 came out at 10.9 µM.

In the case of `O=C(NCc1ccc(N2CCCCC2)cc1)c1nc(-c2cc(Cl)c(O)c(Cl)c2)no1` [166a, 3-(3,5-dichloro-4-hydroxyphenyl)-N-(4-(piperidin-1-yl)benzyl)-1,2,4-oxadiazole-5-carboxamide], the IC50 amounted to 6.21 µM.

Regarding `O=C(NCc1ccc(Cl)c(F)c1)c1nc(-c2cc(Cl)c(O)c(Cl)c2)no1` [123a, N-(4-chloro-3-fluorobenzyl)-3-(3,5-dichloro-4-hydroxyphenyl)-1,2,4-oxadiazole-5-carboxamide], the IC50 was 16.4 µM.

Staying with this assay, now noted: thiadiazole-containing compounds (Table 12), read-out: IC50.
Regarding `Oc1c(Cl)cc(-c2nnc(-c3snnc3-c3ccccc3)s2)cc1Cl` [5h, 2,6-dichloro-4(5-(4-phenyl-1,2,3-thiadiazol-5-yl)-1,3,4-thiadiazol-2-yl)phenol], the IC50 stood at 13.4 µM.
